A word on the pIC50: it is −log10 of the IC50, conventionally taken in molar units. By inhibition is commonly meant the drop in the measured response relative to a control, in per cent.

pIC50: −log10 of the molar value. Active and inactive are the calls of the source.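 Rule for the calls: active = activity score of at least 10, based on curve potency, or else summed standardized inhibition across doses; inactive = the rest.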

We go through 77 compounds from PubChem BioAssay AID462 (Columbia University Molecular Screening Center, 2006).

For the first test, the system named is HUVEC TNFa-induced p65 nuclear translocation, imaging. Briefly: blockers of TNFa-triggered NFkappaB nuclear entry – imaging, HUVEC, TNFalpha stimulation, p65 immunofluorescence, confirmation (AID 462).
Conditions: not given
For `C=CS(=O)(=O)c1ccc(Oc2ccc(S(=O)(=O)C=C)cc2)cc1`, the negative logarithm of the IC50 (pIC50) is 5.84.
For `C[C@H]1CCC/C=C/C2C[C@H](O)CC2[C@H](O)/C=C/C(=O)O1` (some centres not stated), the pIC50 was 7.40.
`O=S1(=O)Nc2c(ccc3cccnc23)-c2ccccc21`: the pIC50 is 5.68.

Test system in another test: not listed separately
The description is as above. The following applies: HUVEC TNFa-induced p65 nuclear translocation, imaging; at 8 µM (top of the series).
As for `CC(C)CNS(=O)(=O)c1ccc(CCC(=O)NCc2ccco2)cc1`, the inhibition was -5.6% (inactive).
Take `Cc1ccc(Cn2ncc3c(N4CCN(Cc5ccc(Cl)cc5)CC4)ncnc32)cc1`: the inhibition was -0.2% (inactive).
The same measure, in the same setting: in the case of `COc1ccccc1CN1CC(C(=O)N2CCN(c3ccc(F)cc3)CC2)CC1=O` (configuration not stated) it was 1.4% (inactive).
On the same count and under the same terms, in the case of `CC1CCCCN1CCNC(=O)c1ccc2c(=O)n(CCc3ccccc3)c(=O)[nH]c2c1` (configuration not stated) it was 4.4% (inactive).
As to `Cc1nc(NC2=NCN(CCc3ccccc3)CN2)nc2c(C)cccc12`, the inhibition was 1% (inactive).
On the same count and under the same terms, then `COc1ccc(CNC(=O)COC(=O)c2n[nH]c3ccccc23)cc1OC`, with -3.8% (inactive).
On to `CCOC(=O)CCNc1n[nH]c(=O)[nH]c1=O`, for which the inhibition was 14.4% (inactive).
Regarding `N#Cc1c(N)n(CCOC(=O)c2ccc(Cl)cc2)c2nc3ccccc3nc12`, the inhibition is 6.7% (inactive).
Consider `COc1ccc(S(=O)(=O)N2CCCC2C(=O)Nc2ccc(C)cc2)cc1` (configuration not stated), for which the inhibition was -0.4% (inactive).
For `COc1cccc(N2CCN(c3ncnc4c3[nH]c3ccccc34)CC2C)c1` (configuration not stated), the inhibition was 66.1%.
Consider `COc1ccc(CC(=O)Nc2ccc(OC)c(NC(=O)c3ccco3)c2)cc1`, for which the inhibition is -6.4% (inactive).
For the compound `Clc1ccc(-c2nnc3sc(-c4ccc(Br)o4)nn23)cc1`, the inhibition is 3.4% (inactive).
Regarding `CC[C@]1(O)CC2CN(CCc3c([nH]c4ccccc34)[C@@](C(=O)OC)(c3cc4c(cc3OC)N(C=O)[C@H]3[C@@](O)(C(=O)OC)[C@H](OC(C)=O)[C@]5(CC)C=CCN6CC[C@]43[C@@H]65)C2)C1` (some centres not stated), the inhibition is 17.2%.
Still for that read-out and setting: then `CCn1c(C(=O)N2CCCC(C(=O)O)C2)cc2sccc21` (configuration not stated), with 1.8% (inactive); and `COC(=O)CCC(=O)Nc1cccc(Cl)c1`, with -0.6% (inactive); and `O=C(Nc1ccc2oc(-c3ccncc3)nc2c1)c1cccs1`, with 0.6% (inactive).
Turning to `CN1CCN(c2oc(COc3ccc(-c4ccccc4)cc3)nc2C#N)CC1`, the inhibition was 2.4% (inactive).
The same measure, in the same setting: in the case of `COc1cc(C2C(C#N)=C(N)Oc3cc(N)ccc32)cc(OC)c1OC` (configuration not stated) it was 23.6% (inactive); in that of `COc1ccc(-n2c(Cc3cccn3C)nnc2SCC(=O)Nc2cccc(Cl)c2)cc1`, 3.9% (inactive); in that of `Cc1cccc(N2CN=c3s/c(=C\c4ccncc4)c(=O)n3C2)c1`, -7.5% (inactive).
As for `Cc1csc(SCCn2c(N3CCCC3)nc3c2c(=O)[nH]c(=O)n3C)n1`, the inhibition is -7.5% (inactive).
Still for that read-out and setting: in the case of `Cn1c(=O)c2c(nc(CN3CCOCC3)n2CC(O)CO)n(C)c1=O` (configuration not stated) it was 3.2% (inactive); in that of `COc1ccc(OC)c(NS(=O)(=O)c2ccc(N3CCCC3=O)cc2)c1`, 15.5% (inactive).
Still for that read-out and setting: in the case of `COc1cc(C)nc(OCCNC(=O)COc2ccc(Cl)cc2C)n1` it was 0.4% (inactive); in that of `Cc1nn(Cc2ccccc2)c(C)c1NC(=O)CCC(=O)O`, -7.5% (inactive).
Turning to `COc1ccc2c(c1)[nH]c1c(=O)n(CC3CCCO3)cnc12` (configuration not stated), the inhibition is -2.7% (inactive).
For the compound `COc1ccccc1CNC(=O)C1CCCN(S(=O)(=O)c2cnc[nH]2)C1` (configuration not stated), the inhibition was -1.1% (inactive).
`CCOc1ccccc1C(=O)N1CCN(c2cccc(Cl)c2)CC1`: the inhibition was 18.5% (inactive).
With `Nc1nc(C(=O)N2CCOCC2)nn1S(=O)(=O)c1ccc(Cl)cc1`, the inhibition was -1.1% (inactive).
On the same count and under the same terms, in the case of `COc1cc(C(O)c2nc3ccccc3n2C)cc(OC)c1OC` (configuration not stated) it was -5.7% (inactive); in that of `COc1ccc(OC)c(C2C(C#N)=C(N)Oc3cc(C)n(Cc4ccccn4)c(=O)c32)c1` (configuration not stated), 4.2% (inactive).
For `COC(=O)CCC(NC(=O)c1cc(-c2ccc3c(c2)OCCO3)oc1C)C(=O)OC` (configuration not stated), the inhibition was -1.9% (inactive).
As to `O=C(O)c1ccc(COCC(F)(F)C(F)F)o1`, the inhibition is 7.3% (inactive).
In the case of `c1cncc(C2Nc3ccccc3-c3nc4ccccc4n32)c1` (configuration not stated), the inhibition was -5% (inactive).
As for `CCN1C(=C2C(=O)c3ccccc3C2=O)C=Cc2ccccc21`, the inhibition was -5% (inactive).
Take `O=C(CN(Cc1ccco1)C(=O)CNS(=O)(=O)c1ccc(Cl)cc1)NCc1ccc(F)cc1`: the inhibition is -0.8% (inactive).
As to `CCCCOc1ccc(-c2nnn(CC(=O)Nc3ncc(CC(=O)OCC)s3)n2)cc1`, the inhibition was -1.5% (inactive).
Still for that read-out and setting: then `COc1ccc(/C(O)=C2/C(=O)C(=O)N(Cc3ccco3)C2c2cccs2)cc1` (configuration not stated), with 4.7% (inactive).
The same measure, in the same setting: in the case of `Nn1c(SCC(=O)Nc2ccc(F)cc2)nnc1-c1cccnc1` it was -0.4% (inactive); in that of `COc1ccc(C(NC(=O)c2ccco2)c2ccc(OC)c(OC)c2)cc1` (configuration not stated), -3.1% (inactive); in that of `CC(C)OC(=O)CSc1nnc(Cc2ccccc2)n1Cc1ccco1`, -1.5% (inactive).
As to `Cc1cc(C(C)(C)C)c(O)c(C)c1CC1=NCCN1`, the inhibition is 7.9% (inactive).
Turning to `O=C1[C@@H]2C(c3ccccc3Cl)=NO[C@@H]2C(=O)N1Cc1ccccc1`, the inhibition was 0% (inactive).
`O=C(C1CCC(N2C(=O)C3CC=CCC3C2=O)CC1)N1CCCCC1` (configuration not stated): the inhibition was -2.3% (inactive).
`CCOc1ccc(S(=O)(=O)N(C)C)cc1-c1nc2c(C(C)(C)C)nn(C)c2c(=O)[nH]1`: the inhibition was -7.2% (inactive).
Same read-out and setting: in the case of `O=C(COC(=O)c1ccccc1Oc1ccccc1)NC1CCS(=O)(=O)C1` (configuration not stated) it was -1.2% (inactive); in that of `CCOc1ccc(C2=Nn3c(nnc3-c3ccccc3OC)SC2)cc1`, 19.7%; in that of `Cc1ccc(-n2c(=O)[nH]c3c(C(N)=O)nc(CC(C)C)nc32)cc1`, -5.2% (inactive).
Consider `CCOC(=O)c1cc2c(=O)n3cccc(C)c3nc2n(CCc2ccccc2)c1=N`, for which the inhibition was 17.3% (inactive).
For the compound `Cn1c(C(=O)NCCC2=CCCCC2)cc2c(=O)n3ccccc3nc21`, the inhibition is -8% (inactive).
In the case of `CC12C(=O)N(CCC(=O)O)C(=O)C1C1C=CC2C1` (configuration not stated), the inhibition was -5.1% (inactive).
Still for that read-out and setting: then `O=C(CSc1nnc(SCc2ccc(Cl)cc2)s1)N1CCN(C(=O)c2ccco2)CC1`, with 5.9% (inactive); and `O=C(NCCCN1CCCC1=O)C1CCN(S(=O)(=O)N2CCOCC2)CC1`, with -10% (inactive).
On to `COc1ccc(-c2nc3c(c(SCC(=O)N4CCOCC4)n2)COC(C)(C)C3)cc1`, for which the inhibition was 1.1% (inactive).
For the compound `COC(=O)c1ccc(N2C(=O)CC(N3CCN(C(=O)c4ccco4)CC3)C2=O)cc1` (configuration not stated), the inhibition was 11.1% (inactive).
For the compound `COc1ccccc1-c1nnc2n1N=C(c1ccc(O)c(O)c1)CS2`, the inhibition is 23% (inactive).
Consider `Cc1nc(N)[nH]c(=O)c1CCC(=O)OCC(C)C`, for which the inhibition was 0% (inactive).
As to `O=C(CSc1nnc2ncccn12)N1CCCCCC1`, the inhibition was -3.2% (inactive).
Turning to `CCOc1cc(C2C(C#N)=C(N)Oc3n[nH]c(CC)c32)ccc1OCCN1CCOCC1` (configuration not stated), the inhibition is -2.3% (inactive).
For the compound `COc1cc([C@@H]2c3cc4c(cc3[C@H](O)[C@H]3COC(=O)[C@H]23)OCO4)cc(OC)c1OC`, the inhibition is 26.3%.
The same measure, in the same setting: then `CCn1c(CSc2ncccn2)nnc1SCC(=O)N1c2ccccc2CC1C` (configuration not stated), with -6.1% (inactive); and `COc1ccc(OCC(=O)OCCN(C)C)cc1`, with 6.8% (inactive); and `Cc1cc(C)n(CC2CC(=O)N(c3cc(Cl)cc(Cl)c3)C2=O)n1` (configuration not stated), with 6.8% (inactive).
Still for that read-out and setting: then `CCC1Oc2ccccc2N(CC(=O)Nc2ccc(OC)cc2OC)C1=O` (configuration not stated), with -5% (inactive).
On to `CCC(NC(=O)Nc1nnc(C(F)(F)F)s1)(C(F)(F)F)C(F)(F)F`, for which the inhibition was -22.3% (inactive).
Take `CC1=CC2=C(OC1N(C)C)c1cccc3cccc(c13)C2=O` (configuration not stated): the inhibition was 5.4% (inactive).
Consider `COc1ccc(N2CCN(CCCNC(=O)C3CCCN(S(=O)(=O)c4cnc[nH]4)C3)CC2)cc1` (configuration not stated), for which the inhibition is 3.2% (inactive).
Still for that read-out and setting: then `CCn1c(C(C#N)/C(=N\S(=O)(=O)c2cccs2)c2ccccc2)nc2ccccc21` (configuration not stated), with -1.6% (inactive).
As for `O=C(COc1ccc2ccccc2c1)N1CCN(C2CCN(Cc3ccccc3)CC2)CC1`, the inhibition is 3.5% (inactive).
Turning to `COc1ccc(N(C)C(=O)CCS(=O)(=O)c2cccc3nonc23)cc1`, the inhibition is -0.8% (inactive).
For the compound `CN(C(=O)COc1cc(=O)n(C)c2ccccc12)c1ccc(Br)cc1`, the inhibition is 2.8% (inactive).
In the case of `Cc1c(C2Nc3ccccc3NC3=C2C(=O)CC(C)(C)C3)cnn1C` (configuration not stated), the inhibition is 4.8% (inactive).
In the case of `CC(C)CCNC(=O)NC(=O)CSc1nnc(COc2ccccc2Cl)o1`, the inhibition is -7.1% (inactive).
As for `Cc1ccccc1CN1CCNC1=O`, the inhibition is -8% (inactive).
